Data on 5 molecules can be found in patent US20240032533A1 (priority 2020, published 2024).

Read-outs that look alike come from different tables or passages of the source.

Data set [1] deals with Zymoseptoria tritici. In words: microbe, parasite or virus in culture. It counts as cell-based. Conditions: for inhibition at 0.05 ppm / inhibition at 0.1 ppm / inhibition at 0.5 ppm / inhibition at 1 ppm: Zymoseptoria tritici.
Data set [2] deals with Phytophthora infestans. Nature of the data set: microbe, parasite or virus in culture. Particulars: for inhibition at 0.05 ppm: read-out: Activity (%) 0.05 ppm; for inhibition at 0.1 ppm: read-out: Activity (%) 0.1 ppm; for inhibition at 0.5 ppm: read-out: Activity (%) 0.5 ppm; for inhibition at 1 ppm: read-out: Activity (%) 1 ppm; for inhibition at 5 ppm: read-out: Activity (%) 5 ppm; for inhibition at 10 ppm: read-out: Activity (%) 10 ppm; for inhibition at 50 ppm: read-out: Activity (%) 50 ppm. It counts as cell-based.

In data set [3] the test system is Venturia inaequalis. In words: microbe, parasite or virus in culture. It counts as cell-based.
Data set [4] has as its system Plasmopara viticola strain PvS. Nature of the data set: Grapevine downy mildew, preventive treatment of detached grapevine leaves / leaf discs. It counts as in vivo. Particulars: 2267 ppm, preventive 24 h, 7 dpi.
Data set [5] relates to Phytophthora infestans strain Pi96. It counts as in vivo. Conditions: for Disease Severity Index (%) 3 dpi / Disease Severity Index (%) 7 dpi / Disease Severity Index (%) 5 dpi / Disease Severity Index (%) 10 dpi: preventive 24 h.
Data set [6] in a line: Water solubility as a function of pH. It counts as physicochemical. Particulars: increases at pH values below 7.0 and above 7.0.

Regarding `CCCCCCCCCCCCCCCCCC[S+](C)C.[I-]` [1-5, octadecyl dimethyl sulfonium iodide], in data set [1] (0.05 ppm), the “Activity (%) 0.05 ppm” value was found to be 6.4%. Also, the “Activity (%) 0.1 ppm” value in data set [1] came out at 2.7%. The “Activity (%) 0.5 ppm” value in data set [1] (0.5 ppm) is listed as 11.2%. The “Activity (%) 1 ppm” value in data set [1] (1 ppm) is reported as 92.7%.

For the molecule `N#Cc1c(Cl)c(Cl)c(Cl)c(C#N)c1Cl` [Chlorothalonil], the inhibition at 0.05 ppm in data set [1] (0.05 ppm) was determined as 4.3%. In data set [1], the inhibition at 0.1 ppm turned out to be 10%. Moreover, the inhibition at 0.5 ppm in data set [1] (0.5 ppm) came to 17.9%. In addition, the inhibition at 1 ppm in data set [1] (1 ppm) is 54.7%. Further, in data set [2], the inhibition at 0.05 ppm is -11.8%, the inhibition at 0.1 ppm is -5.8%, the inhibition at 0.5 ppm was -2% and the inhibition at 1 ppm came out at 15.3%. Also, in data set [2], the inhibition at 5 ppm amounted to 99.2%, the inhibition at 10 ppm stood at 98.5% and the inhibition at 50 ppm was 100%. In addition, in data set [3], the inhibition at 0.1 ppm amounted to 34.3%, the inhibition at 0.5 ppm was found to be 88.8% and the inhibition at 1 ppm is 97.4%.

Regarding `CCCCCCCCCCCCNC(=N)N` [Dodine], the “control towards Downy Mildew” value in data set [4] is on record as “full control”. Besides, the inhibition at 0.05 ppm in data set [1] (0.05 ppm) worked out at 5.2%. In data set [1], the inhibition at 0.1 ppm is 21.4%. Moreover, the inhibition at 0.5 ppm in data set [1] (0.5 ppm) turned out to be 101%. Also, in data set [1] (1 ppm), the inhibition at 1 ppm came to 98.1%. Further, in data set [2], the inhibition at 0.05 ppm is 12.5%, the inhibition at 0.1 ppm came out at 12%, the inhibition at 0.5 ppm came to 59.4% and the inhibition at 1 ppm was determined as 81.9%. For the same molecule, in data set [2], the inhibition at 5 ppm turned out to be 93.8%, the inhibition at 10 ppm is 95.5% and the inhibition at 50 ppm turned out to be 98.9%. Moreover, in data set [3], the inhibition at 0.1 ppm came to 83.2%, the inhibition at 0.5 ppm amounted to 98.2% and the inhibition at 1 ppm turned out to be 97.3%.

For `CCCCCCCCCCCCCCCCCC[S+](C)C.[Cl-]` [ODS-Cl, octadecyl dimethyl sulfonium chloride], in data set [5] (50 ppm), the “Disease Severity Index (%) 3 dpi” value turned out to be 8.7% and the “Disease Severity Index (%) 7 dpi” value was 40.0%. The “Disease Severity Index (%) 3 dpi” value in data set [5] (100 ppm) came out at 5.5%. Further, in data set [5] (500 ppm), the “Disease Severity Index (%) 3 dpi” value came out at 0.0%, the “Disease Severity Index (%) 5 dpi” value amounted to 0.0%, the “Disease Severity Index (%) 7 dpi” value is listed as 0.0% and the “Disease Severity Index (%) 10 dpi” value turned out to be 0.0%. In data set [5] (1000 ppm), the “control of the disease (late blight)” value was “full control”, the “Disease Severity Index (%) 3 dpi” value came out at 0.0%, the “Disease Severity Index (%) 5 dpi” value turned out to be 0.0% and the “Disease Severity Index (%) 7 dpi” value amounted to 0.0%. The “Disease Severity Index (%) 10 dpi” value in data set [5] (1000 ppm) is 0.0%. For the same molecule, the “Activity (%) 0.1 ppm” value in data set [1] is 8.8%. The inhibition at 0.05 ppm in data set [1] (0.05 ppm) is 6.5%. Further, the inhibition at 0.5 ppm in data set [1] (0.5 ppm) is 11.5%. Further, in data set [1] (1 ppm), the inhibition at 1 ppm worked out at 91%. Further, in data set [2], the inhibition at 0.05 ppm worked out at 6.2%, the inhibition at 0.1 ppm was 12.6%, the inhibition at 0.5 ppm amounted to 12.5% and the inhibition at 1 ppm amounted to 12.3%. In data set [2], the inhibition at 5 ppm was determined as 14.1%, the inhibition at 10 ppm was 29.3% and the inhibition at 50 ppm came to 98.4%. For the same molecule, in data set [3], the inhibition at 0.1 ppm came to 14.3%, the inhibition at 0.5 ppm stood at 97.4% and the inhibition at 1 ppm was determined as 97.2%.

For the molecule `CCCCCCCCCCCCCCCCCC[S+](C)C.[Cl-]` [octadecyl dimethyl sulfonium chloride], the “water solubility, pH dependency” value in data set [6] is listed as “minimum around pH 7.0”.
